Laboratory results reported in article PMC6155239, “Targeting PFKFB3 radiosensitizes cancer cells and suppresses homologous recombination” (Nature Communications, 2018).

Tests used:
[1] = system: 97 kinases of the scanEDGE set; test: DiscoveRx KINOMEscan scanEDGE panel; format: binding; details: 2 µM
[2] = system: intracellular F-2,6-P2 levels; test: Intracellular F-2,6-P2 quantification (van Schaftingen assay); format: cell-based; details: pancreatic, gastric and colon cancer cell lines
Method: Quantification of F-2,6-P2 was performed as described by Van Schaftingen et al.[34]. The assay is based on the potent activation of pyrophosphate-dependent phosphofructokinase-1 (PPi-PFK) from potato tubers by F-2,6-P2. The use of a series of coupled enzymes leads to a consumption of nicotinamide adenine dinucleotide (NADH) that can be followed spectrophotometrically. PANC-1, NUGC-3, SW620, or MIA PaCa-2 cells were seeded at a density of 2.5 × 10^4–3.5 × 10^4 cells per well (96-well, CLS3595, Sigma-Aldrich) and incubated overnight at 37 °C and 5% CO2. […] Plates stored at −20 °C were thawed and the F-2,6-P2 quantification was initiated by transferring 40 µL from each well of the NUNC plate to the corresponding position in a transparent 96-well SpectraPlate-MB (PerkinElmer). In order to ensure that all F-2,6-P2 measured values were within the linear range of response (between 0 and 1 nM final concentration of F-2,6-P2[34]), the same sample volume of an in-house produced F-2,6-P2 standard was included on each plate. […] The coupled enzymatic reaction was allowed to proceed for 45 min at room temperature and the absorbance at 340 nm was continuously measured every 30 s (SpectraMax plate reader, Molecular Devices). The measured absorbance was proportional to the concentration of NADH, which in turn was proportional to the levels of F-2,6-P2 within the linear range. […]

PFKFB3 = PFKFB3 (Homo sapiens, UniProt Q16875); test: ADP-Glo kinase activity assay, PFKFB3; format: biochemical
PFKFB3, sequence (Q16875 whole entry): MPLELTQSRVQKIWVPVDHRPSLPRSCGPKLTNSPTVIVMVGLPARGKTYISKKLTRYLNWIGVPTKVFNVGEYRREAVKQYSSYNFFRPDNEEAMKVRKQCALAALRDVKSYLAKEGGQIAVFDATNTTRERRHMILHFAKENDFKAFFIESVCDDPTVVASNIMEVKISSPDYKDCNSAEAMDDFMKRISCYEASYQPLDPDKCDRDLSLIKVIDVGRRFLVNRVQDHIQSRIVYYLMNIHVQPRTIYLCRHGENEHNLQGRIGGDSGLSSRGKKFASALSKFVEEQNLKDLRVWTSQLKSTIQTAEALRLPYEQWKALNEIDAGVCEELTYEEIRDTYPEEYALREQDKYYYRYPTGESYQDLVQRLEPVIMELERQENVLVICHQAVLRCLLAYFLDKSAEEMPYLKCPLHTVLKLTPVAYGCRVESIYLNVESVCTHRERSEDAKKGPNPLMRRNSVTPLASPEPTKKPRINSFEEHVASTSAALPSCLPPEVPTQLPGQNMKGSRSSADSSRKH
Method: The kinase activity of the bi-functional enzyme was quantified based on the production of ADP and F-2,6-P2 from ATP by ADP-GloTM Kinase Assay (Promega). The assay was performed in two steps; first, after the kinase reaction, an equal volume of ADP-GloTM Reagent was added to terminate the kinase reaction and deplete the remaining ATP. Second, the Kinase Detection Reagent was added to simultaneously convert ADP to ATP and allow the newly synthesized ATP to be measured using a luciferase/luciferin reaction. The light generated was measured using a luminescence counter (1450 MicroBeta TriLux). The assay was performed in white 384-well plates (OptiPlate, 6007299, PerkinElmer) by consecutive additions of a test compound solution (0.1 µL, serial diluted in DMSO from compound DMSO stock solution and dispensed by acoustic dispensing from UV-star 384-well plate 7360153, VWR), enzyme solution (5 µL) and substrate (fructose-6-phosphate (F6P) and adenosine-5′-triphosphate (ATP)) containing solution (5 µL). […] Four reference dose–response curves, one of them being the QC compound, were included and serial diluted as the test compounds. The final concentrations of all reagents per well were 50 mM Tris–HCl at pH 8.0, 10 mM MgCl2, 5 mM NaPi at pH 8.0, 81.48 nM PFKFB3 or 145 nM PFKFB4, 8 µM ATP, 100 µM F6P (acid treated and then neutralized to remove any contaminating F-2,6-P2[34]), 0.005% Tween-20 and 1 mM dithiothreitol. Enzyme, compounds, and controls were pre-incubated at room temperature for 15 min before the addition of substrate solution. The enzymatic reaction was allowed to proceed for 20 min and the reaction was terminated by the addition of ADP-GloTM Reagent (10 µL) to all wells followed by 40 min incubation at room temperature. […] The inhibitory potency or IC50 values of test compounds on the kinase activity of the enzymes were calculated using a four-parameter model (model 205) in XLfit (IDBS ActivityBase XE Runner).

U2OS DR-GFP cells = test: DR-GFP (HR) assay; format: cell-based; details: DMSO = 100% activity
Method: 5 × 10^4 U2OS (DR-GFP) cells were seeded into 12-well plates, 24 h later cells were treated with the indicated siRNAs or inhibitors and, 24 h later, transfected with 150 ng of an I-SceI vector using JetPEI or JetPRIME (Polyplus transfections). The next day, the medium was changed; 24 h after this, cells were harvested by trypsinization and washed with PBS, and the GFP signal was measured by flow cytometry on a FACS Navios (as described above). The frequency of repair in cells treated with inhibitors or transfected with the various siRNAs was calculated relative to cells treated with DMSO or transfected with control siRNA.

SMILES | binding to the 97 targets of the scanEDGE set [1] | potency on intracellular F-2,6-P2 levels (in words) [2] | IC50 (PFKFB3; ADP-GLO assay) [nM] | HR activity as compared to vehicle-treated cells (U2OS DR-GFP cells) [%] | inhibition of recombinant PFKFB3 kinase activity (in words) (PFKFB3; in vitro enzymatic assay)
O=C(O)c1ccc(NS(=O)(=O)c2cccc(-c3cc(F)ccc3O)c2)cc1O [KAN0438241, 4-{[(5′-Fluoro-2′-hydroxybiphenyl-3-yl)sulfonyl]amino}-2-hydroxybenzoic acid] | no significant binding | low µM potency | 190 | – | –
O=C(OCCO)c1ccc(NS(=O)(=O)c2cccc(-c3cc(F)ccc3O)c2)cc1O [KAN0438757, 2-Hydroxyethyl-4-{[(5′-fluoro-2′-hydroxybiphenyl-3-yl)sulfonyl]amino}-2-hydroxybenzoate] | no significant binding | sub-µM IC50 values | – | 10 | largely inactive
